# Key:
# [1] = tested on: spinal cord injury (SCI) rat model; assay: Spinal cord injury rat model: lesion volume; format: in vivo; conditions: for Percent change in Lesion volume: reduction vs Saline group (group 1), 0.5 ml/kg IV
# Experimental: Animals: Female Sprague-Dawley rats (Harlan Sprague-Dawley, Indianapolis, Ind.), weighing 200-225 grams each were given free access to food and water before the experiment. The animals were anesthetized with ketamine (80 mg/kg) and xylazine (10 mg/kg). Brain temperatures were monitored using a rectal thermometer. The animals' body temperature was maintained at 37° C. by using a water jacketed heating pad. Brain temperature was monitored for 1 hour prior to injury to 6 hours following injury and was recorded at 30-minute intervals.
# Experimental Groups. The spinal cord injury model utilized in the studies is described in detail (Rabchevsky et al, 2002; J. Neurosci. Res. 68:7). Young adult female Sprague-Dawley rats received a spinal cord contusion using the Precision Scientific Inc. pneumatic impactor. Female animals were used due to the paralysis associated with the injury and ease of voiding the bladder. Prior to surgery, rats were assigned to different treatment groups based on a randomized block design so that on any given surgery day all treatment groups were included. The rats were anesthetized with ketamine (80 mg/kg) and xylazine (10 mg/kg) before laminectomy was performed at the 10th thoracic vertebra (T10). The vertebral column was stabilized with angled clamps on the upper thoracic (T8) and lumber […] levels and the impactor with a tip diameter of 2 mm was delivered at approximately 50 kdynes onto the exposed, intact dura overlying the dorsal spinal cord. The impactor was immediately removed, the wound irrigated with saline and the muscle and skin openings sutured together.
# Drug Administration. Compound was administered in the following paradigm: intravenous injection of saline or drug solutions 15 minutes following injury at 0.5 ml/kg (1×10^4, 5×10^4, and 10×10^4 TCDO). Drug was administered once per day starting at the indicated times and continued for 5 days. The saline control group was run in parallel with the drug-treated groups.
# Histology. At the end of the study, the animals were killed and the spinal cord fixed in 4% paraformaldehyde. For analysis, 20 μm cryosections were stained for eriochrome cyanine (EC) to differentiate between white matter and cell bodies to calculate the amount of spared tissue through the lesion site. Immunocytochemical analysis was performed on the tissue. Tissue sparing was determined by computed image analysis from 10 evenly spaced sections through the injured T10 segment. The volume of necrotic tissue divided by the total cross-sectional volume is converted to a percentage and subtracted from 100%. Sections were taken for immunocytochemical analysis for macrophage infiltration
# Each animal received induction of 5 i.v. injections for a total of 5×0.5 ml/kg of body weight. […]
# SCI rat study: mortality = format: in vivo; conditions: 0.5 ml/kg IV once daily 5 days, 6 weeks
# Source text: Mortality: There were no deaths in this study.
# [2] = tested on: spinal cord injury (SCI) rat model; assay: Example 3: TCDO in the spinal cord injury rat model (lesion volume, BBB); format: in vivo
# Experimental: Tetrachlorodecaoxygen (TCDO) was tested for efficacy in the spinal cord injury (SCI) rat model. In order to determine the efficacy of TCDO, rats were subjected to spinal cord injury and 6 weeks of recovery. Rats were injected intravenously with saline or TCDO solutions. Rats received 1 injection regiment: administered 15 minutes after injury. Animals were injected once daily for 5 days following the injury. Treated rats were examined after 1, 2, 3, 4, 5, and 6 weeks for drug behavioral effect. The animals were examined for changes in lesion volume (LV) and Basso, Beattie and Bresnahan (BBB) locomotor test. […] However, by 7 days, TCDO was not effective in reducing the LV or behavioral deficits.
# non-healing wounds = assay: Example 4: topical TCDO versus saline in 271 patients with non-healing wounds; format: in vivo, human
# Experimental: TCDO was investigated for its effects on non-healing wounds. In the study, 271 patients with non-healing wounds which included post-operative wounds, venous ulcers, arterial ulcers, post traumatic wounds and decubitus ulcers. The patients received either 5 mL of TCDO or saline twice daily applied by compress or directly to the wound for 21 days. […] Irrespective of wound types, wound surface decreased 2 to 4 times more quickly with TCDO treatment compared to saline. […] Adverse events were reported by 7% and 12% of patients treated with saline and TCDO respectively, the most frequent was slight pain.
# diabetic foot ulcer = assay: Example 6: randomized controlled trial of TCDO as adjunct in diabetic foot ulcer; format: in vivo, human
# Experimental: This randomized controlled trial was undertaken to evaluate the effect of TCDO as an adjunct to the standard treatment of diabetic foot ulcer. A total of 40 participants were randomized into 2 groups of 20. One group underwent standard therapy combined with infusions of TCDO, and 1 underwent standard therapy combined with placebo. The wound severity scores, which vary with the severity of infection and inflammation, necrotic and granulation tissues, and wound depth and area, were assessed weekly for 9 weeks.
# [3] = 4 cycles of 0.5 mL TCDO/kg body weight per day
# Experimental: Patients were then given 4 cycles of WF10 with the daily dose ranging from 0.5 mL/kg body weight to 1.5 mL/kg body weight.
# [4] = tested on: lipopolysaccharide (LPS) from E coli 055B5; conditions: TCDO 0.2 ml/kg iv twice during the day before iv LPS; without TCDO 346; cited from earlier work
# E. coli = conditions: phagocytosis assay; cited from earlier work
# [5] = tested on: monocytes and large granular lymphocytes; conditions: rats, cited from earlier work
# [6] = tested on: autoimmune disease with skin manifestations; conditions: cited from earlier work
# wounds [7] = conditions: topical; superior to PVP-iodine treatment; cited from earlier work
# wounds [8] = conditions: applied topically; cited from earlier work
# HIV = conditions: cited from earlier work
# [9] = tested on: T-lymphoma cell line ACH2; conditions: cited from earlier work
# [10] = tested on: monocytes, macrophages and lymphocytes; conditions: in vitro; cited from earlier work
# [11] = tested on: macrophages infiltrating a skin blister; conditions: human wound-healing model; cited from earlier work
# [12] = tested on: granulocytes, PBMCs, LGLs, erythropoiesis; conditions: rats, cited from earlier work
# hematopoietic stem cells = conditions: mice receiving sublethal doses of irradiation; cited from earlier work
# [13] = tested on: radiation-induced, chemical induced and metastatic malignant and benign tumors; conditions: cited from earlier work
# [14] = tested on: humoral and cellular immune responses; conditions: cited from earlier work
# activated microglia = conditions: Kindy et al.; cited from earlier work
# [15] = target: gp120 envelope glycoprotein of HIV-1 (Human immunodeficiency virus type 1 group M subtype B, UniProt P04578); conditions: pre-incubation with TCDO; cited from earlier work
# [16] = i.v. once daily 5 days, initiated 15 minutes following injury
# [17] = after 9 weeks, subgroup analysis, p<0.01 vs placebo
# [18] = one patient, four cycles at 0.5 mL/kg body weight
# [19] = patients, two cycles at 0.5 mL/kg body weight
substance,measurement,setting,value
Tetrachlorodecaoxygen [TCDO],Lesion volume (mm^3),"[1]; rat SCI, 1 × 10^4 units TCDO, 0.5 ml/kg IV once daily 5 days from 15 min after injury, day 42, mean ± SD",did not show a significant reduction
same,Percent change in Lesion volume,[1]; 1 × 10^4 units TCDO,25%
same,Percent change in Lesion volume,[1]; 5 × 10^4 units TCDO,50%
same,Percent change in Lesion volume,[1]; 10 × 10^4 units TCDO,65%
same,Mortality,SCI rat study: mortality,no deaths
same,Reduction of LV or behavioral deficits,[2]; by 7 days,not effective
same,Decrease in lesion volume (LV),[2]; [16],49%
same,Improvement of BBB score,[2]; [16],158%
same,Wound cleaning and formation of new tissue versus saline,"non-healing wounds; 271 patients, 5 mL twice daily topically for 21 days",significantly superior to saline
same,"Adverse events, patients reporting","non-healing wounds; topical, 21 days, most frequent was slight pain",12%
same,Wound depth and wound area versus placebo,diabetic foot ulcer; after 9 weeks,not statistically significant
same,Wound severity score,"diabetic foot ulcer; after 9 weeks, standard therapy plus TCDO infusions, n=20, p<0.05 vs placebo",1.8±1.9
same,Infection and inflammation score,diabetic foot ulcer; [17],0.0±0.0
same,Necrotic tissue score,diabetic foot ulcer; [17],0.0±0.0
same,Granulation tissue score,"diabetic foot ulcer; after 9 weeks, subgroup analysis, p<0.05 vs placebo",0.1±0.3
same,Severe adverse events,diabetic foot ulcer; throughout the observation period,No severe adverse events were observed
same,Hemolysis,[3],no clinically relevant hemolysis
same,LD50 value of LPS after TCDO,[4],518 mg
same,TCDO dose to which the concentration of maximal ingestion of E. coli corresponds,E. coli,0.5 mL/kg-body weight
same,Time for monocyte level to return to normal value after discontinuation,[5]; after 90 days of dosing,30 days
same,Blood levels of monocytes and large granular lymphocytes,"[5]; daily for 90 days, 0.33 to 2.0 mL/kg body weight, within four days",greater than three times baseline value
same,Monocyte level elevated over baseline,[5]; sixteen days after discontinuation,approximately 50%
same,"Treatment outcome, HIV associated psoriasis",[6]; [18],successfully treated
same,"Treatment outcome, eczema",[6]; [18],successfully treated
same,"Treatment outcome, pustular psoriasis","[6]; one patient, two cycles at 0.5 mL/kg body weight",successfully treated
same,"Treatment outcome, chronic actinic dermatitis",[6]; [19],successfully treated
same,"Treatment outcome, pemphigus vulgaris",[6]; [19],successfully treated
same,Reduction in wound surface,wounds [7],74.9%
same,Effects of cortisone on wounds,wounds [8],reverse the effects of cortisone on wounds
same,Infectivity of HIV particles,"HIV; HIV stocks supplemented with TCDO, concentration dependent",markedly decreased the infectivity of HIV particles
same,Anti-HIV properties,HIV; in vitro,displayed anti-HIV properties
same,Replication of HIV,"HIV; persistently infected lymphocytic and monocytic cell lines, peripheral blood mononuclear cells",did not affect the replication of HIV
same,Delayed virus spread of HIV in presence of suboptimal concentrations of zidovudine,HIV; simultaneous addition of TCDO,could significantly be blocked
same,Induction of chromosomally integrated HIV-1 provirus,[9],failed to induce
same,Antigen presentation,[10],decrease antigen presentation
same,Macrophage TNF-α expression,[10],decrease macrophage tumor necrosis factor (TNF)-α expression
same,Macrophage-fibroblast cooperation,[10],enhance macrophage-fibroblast cooperation
same,Oxidative burst in monocytes,[10],stimulate an oxidative burst in monocytes
same,Phagocytosis,[10],increase phagocytosis
same,Number of macrophages infiltrating a skin blister,[11],increased the number of macrophages infiltrating a skin blister
same,Erythropoiesis,[12]; after total body X-irradiation,stimulated erythropoiesis
same,"Proportion of granulocytes, PBMCs and LGLs",[12],"increased the proportion of granulocytes, peripheral blood monocytes (PBMCs) and large granular lymphocytes (LGLs)"
same,Regeneration of hematopoietic stem cells,hematopoietic stem cells,stimulated regeneration of hematopoietic stem cells
same,Antitumor effects,[13],displayed direct antitumor effects
same,Humoral immune response,[14]; Jerne plaque test,increased
same,Cellular immune response,[14]; footpad swelling test,increased
same,Proportions of T-helper and T suppressor/cytotoxic cells,[14]; spleen and thymus,altered proportions of T-helper and T suppressor/cytotoxic cells
same,Production of proinflammatory cytokines and superoxide anion,activated microglia,suppresses the production of proinflammatory cytokines and superoxide anion
same,Binding of gp120 of HIV-1 to cells,[15],is blocked
